Laboratory results from patent US8846694B2, “Pyrrolidone derivatives for use as MetAP-2 inhibitors” (Merck Patent GmbH, priority 2008, dated 2014).
pIC50: −log10 of the molar value. Structures can show the parent of a compound that is named as a salt.

Biological target: MetAP-2 (Homo sapiens, UniProt P50579)
Assay: MetAP-2 activity measurement (coupled enzymatic reactions, substrate Met-Arg-Ser, photometric at 450 nm)
Assay type: biochemical
Conditions: read-out: IC50 enzyme (Inhibition of MetAP-2)
Summary of the method: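 Human MetAP-2 cleaves Met-Arg-Ser; the freed methionine is oxidized by L-amino acid oxidase, and the resulting H2O2 drives peroxidase oxidation of dianisidine, read continuously at 450 nm. Activity is taken as the slope in the visually linear region.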

Chain of MetAP-2 (P50579 whole entry, species assumed): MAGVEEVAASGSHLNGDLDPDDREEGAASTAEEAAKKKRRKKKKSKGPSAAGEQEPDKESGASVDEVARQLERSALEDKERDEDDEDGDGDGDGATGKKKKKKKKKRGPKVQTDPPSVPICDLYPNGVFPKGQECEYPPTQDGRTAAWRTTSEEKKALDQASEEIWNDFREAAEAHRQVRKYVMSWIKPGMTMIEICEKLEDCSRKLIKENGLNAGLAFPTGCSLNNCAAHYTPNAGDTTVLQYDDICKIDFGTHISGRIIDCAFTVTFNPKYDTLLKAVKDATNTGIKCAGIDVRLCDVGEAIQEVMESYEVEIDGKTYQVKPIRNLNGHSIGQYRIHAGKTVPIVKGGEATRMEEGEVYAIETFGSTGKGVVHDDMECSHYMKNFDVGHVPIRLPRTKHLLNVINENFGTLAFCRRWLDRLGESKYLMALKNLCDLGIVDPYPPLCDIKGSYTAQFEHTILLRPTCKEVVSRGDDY

| SMILES | pIC50 |
| --- | --- |
| CCCCOC(=O)c1cc(OC[C@H]2CCCN2c2ncnc3[nH]cnc23)c2cc(F)ccc2n1 [A139, Butyl 6-fluoro-4-[(R)-1-(9H-purin-6-yl)pyrrolidin-2-ylmethoxy]quinoline-2-carboxylate] | 6.00 to 8.00 |
| [O-][n+]1c(C(F)(F)F)cc(OC[C@H]2CCCN2c2ncnc3[nH]cnc23)c2cc(F)ccc21 [A140, 6-Fluoro-4-[(R)-1-(9H-purin-6-yl)pyrrolidin-2-yl-methoxy]-2-trifluoromethylquinoline 1-oxide] | 6.00 to 8.00 |
| O=C(O)c1cc(OC[C@H]2CCCN2c2ncnc3[nH]cnc23)c2cc(F)ccc2n1 [A141, 6-Fluoro-4-[(R)-1-(9H-purin-6-yl)pyrrolidin-2-yl-methoxy]quinoline-2-carboxylic acid] | 6.00 to 8.00 |
| O=[N+]([O-])c1ccc2cccc(OC[C@H]3CCCN3c3ncnc4[nH]cnc34)c2c1 [A142, 6-[(R)-2-(7-Nitronaphthalen-1-yloxymethyl)-pyrrolidin-1-yl]-9H-purine] | 6.00 to 8.00 |
| CNc1ccccc1C(=O)OC[C@H]1CCCN1c1ncnc2[nH]cnc12 [A143, (R)-1-(9H-purin-6-yl)pyrrolidin-2-ylmethyl 2-methylaminobenzoate] | 6.00 to 8.00 |
| Nc1ccc2cccc(OC[C@H]3CCCN3c3ncnc4[nH]cnc34)c2c1 [A144, 8-[(R)-1-(9H-Purin-6-yl)pyrrolidin-2-yl-methoxy]naphthalen-2-ylamine] | 6.00 to 8.00 |
| CN1CCN(c2ccc3cccc(OC[C@H]4CCCN4c4ncnc5[nH]cnc45)c3c2)CC1 [A145, 6-{(R)-2-[7-(4-Methylpiperazin-1-yl)naphthalen-1-yloxymethyl]pyrrolidin-1-yl}-9H-purine] | 5.00 to 6.00 |
| c1cc(OC[C@H]2CCCN2c2ncnc3[nH]cnc23)c2cc(N3CCOCC3)ccc2c1 [A146, 6-[(R)-2-(7-Morpholin-4-ylnaphthalen-1-yl-oxymethyl)pyrrolidin-1-yl]-9H-purine] | 6.00 to 8.00 |
| Oc1ccc(OC[C@H]2CCCN2c2ncnc3[nH]c(F)nc23)c2ccccc12 [A147, 4-[(R)-1-(8-Fluoro-9H-purin-6-yl)pyrrolidin-2-yl-methoxy]naphthalen-1-ol] | 5.00 to 6.00 |
| c1ccc2c(OC[C@H]3CCCN3c3ncnc4[nH]cnc34)cncc2c1 [A148, 4-[(R)-1-(9H-Purin-6-yl)pyrrolidin-2-yl-methoxy]isoquinoline] | 6.00 to 8.00 |
| O=C(NCCN1CCOCC1)c1cc(OC[C@H]2CCCN2c2ncnc3[nH]cnc23)c2ccccc2n1 [A149, N-(2-Morpholin-4-ylethyl)-4-[(R)-1-(9H-purin-6-yl)pyrrolidin-2-ylmethoxy]quinoline-2-carboxamide] | < 5.00 |
| O=C(NCCCN1CCOCC1)c1cc(OC[C@H]2CCCN2c2ncnc3[nH]cnc23)c2ccccc2n1 [A150, N-(3-Morpholin-4-ylpropyl)-4-[(R)-1-(9H-purin-6-yl)pyrrolidin-2-ylmethoxy]quinoline-2-carboxamide] | 6.00 to 8.00 |
| COC(=O)c1c(OC[C@H]2CCCN2c2ncnc3[nH]cnc23)c2cc(F)ccc2n1C [A151, Methyl 5-fluoro-1-methyl-3-[(R)-1-(9H-purin-6-yl)pyrrolidin-2-ylmethoxy]-1H-indole-2-carboxylate] | 6.00 to 8.00 |
| COc1ccc(CCOc2cc3c(OC[C@H]4CCCN4c4ncnc5[nH]cnc45)ccc(CCc4ccc(OC)cc4)c3cc2C(=O)N(C)C)cc1 [A152, N,N-Dimethyl-3-[2-(4-methoxyphenyl)ethoxy]-8-[2-(4-methoxyphenyl)ethyl]-5-[(R)-1-(9H-purin-6-yl)pyrrolidin-2-ylmethoxy]naphthalene-2-carboxamide] | < 5.00 |
| Clc1ccc(-n2ccc(OC[C@H]3CCCN3c3ncnc4[nH]cnc34)n2)c(Cl)c1 [A153, 6-{(R)-2-[1-(2,4-Dichlorophenyl)-1H-pyrazol-3-yloxymethyl]pyrrolidin-1-yl}-9H-purine] | 6.00 to 8.00 |
| CCNC(=O)Nc1ccc2cccc(OC[C@H]3CCCN3c3ncnc4[nH]cnc34)c2c1 [A154, 1-Ethyl-3-{8-[(R)-1-(9H-purin-6-yi)pyrrolidin-2-yl-methoxy]naphthalen-2-yl}urea] | 5.00 to 6.00 |
| CCNC(=O)N1CCN(c2ccc3cccc(OC[C@H]4CCCN4c4ncnc5[nH]cnc45)c3c2)CC1 [A155, N-Ethyl-4-{8-[(R)-1-(9H-purin-6-yl)pyrrolidin-2-yl-methoxy]naphthalen-2-yl}piperazine-1-carboxamide] | 5.00 to 6.00 |
| O=C(NCc1ccco1)N1CCN(c2ccc3cccc(OC[C@H]4CCCN4c4ncnc5[nH]cnc45)c3c2)CC1 [A156, N-(Furan-2-ylmethyl)-4-{8-[(R)-1-(9H-purin-6-yl)-pyrrolidin-2-ylmethoxy]naphthalen-2-yl}-piperazine-1-carboxamide] | 5.00 to 6.00 |
| CCOC(=O)CNC(=O)N1CCN(c2ccc3cccc(OC[C@H]4CCCN4c4ncnc5[nH]cnc45)c3c2)CC1 [A157, Ethyl [(4-{8-[(R)-1-(9H-purin-6-yl)pyrrolidin-2-yl-methoxy]naphthalen-2-yl}piperazine-1-carbonyl)amino]acetate] | 5.00 to 6.00 |
| O=C(O)CNC(=O)N1CCN(c2ccc3cccc(OC[C@H]4CCCN4c4ncnc5[nH]cnc45)c3c2)CC1 [A158, [(4-{8-[(R)-1-(9H-Purin-6-yl)pyrrolidin-2-yl-methoxy]naphthalen-2-yl}piperazine-1-carbonyl)amino]acetic acid] | < 5.00 |
| O=C(NCc1ccco1)Nc1ccc2cccc(OC[C@H]3CCCN3c3ncnc4[nH]cnc34)c2c1 [A159, 1-Furan-2-ylmethyl-3-{8-[(R)-1-(9H-purin-6-yl)-pyrrolidin-2-ylmethoxy]naphthalen-2-yl}urea] | 5.00 to 6.00 |
| COC(=O)CC[C@H](NC(=O)OCc1ccccc1)C(=O)Nc1ccc2cccc(OC[C@H]3CCCN3c3ncnc4[nH]cnc34)c2c1 [A160, Methyl (S)-4-benzyloxycarbonylamino-4-{8-[(R)-1-(9H-purin-6-yl)pyrrolidin-2-ylmethoxy]-naphthalen-2-ylcarbamoyl}butyrate] | < 5.00 |
| CC(C)(C)OC(=O)N[C@@H](CCC(N)=O)C(=O)Nc1ccc2cccc(OC[C@H]3CCCN3c3ncnc4[nH]cnc34)c2c1 [A161, tert-Butyl ((S)-3-carbamoyl-1-{8-[(R)-1-(9H-purin-6-yl)pyrrolidin-2-ylmethoxy]naphthalen-2-ylcarbamoyl}propyl)carbamate] | 5.00 to 6.00 |
| CC(C)(C)OC(=O)N[C@H](CC(N)=O)C(=O)Nc1ccc2cccc(OC[C@H]3CCCN3c3ncnc4[nH]cnc34)c2c1 [A162, tert-Butyl ((R)-2-carbamoyl-1-{8-[(R)-1-(9H-purin-6-yl)pyrrolidin-2-ylmethoxy]naphthalen-2-ylcarbamoyl}ethyl)carbamate] | 5.00 to 6.00 |
| CC(C)(C)OC(=O)N[C@@H](Cc1c[nH]cn1)C(=O)Nc1ccc2cccc(OC[C@H]3CCCN3c3ncnc4[nH]cnc34)c2c1 [A163, tert-Butyl ((S)-2-(1H-imidazol-4-yl)-1-{8-[(R)-1-(9H-purin-6-yl)pyrrolidin-2-ylmethoxy]-naphthalen-2-ylcarbamoyl}ethyl)carbamate] | 5.00 to 6.00 |
| N[C@@H](Cc1c[nH]cn1)C(=O)Nc1ccc2cccc(OC[C@H]3CCCN3c3ncnc4[nH]cnc34)c2c1 [A164, (S)-2-Amino-3-(1H-imidazol-4-yl)-N-{8-[(R)-1-(9H-purin-6-yl)pyrrolidin-2-ylmethoxy]-naphthalen-2-yl}propionamide * HCl] | 5.00 to 6.00 |
